Laboratory results reported in the kinase profiling compilation of Christmann-Franck et al. (2016).

How the values were obtained:
Assay in all cases: KINOMEscan competition binding
Conditions in all cases: compound 1.0 µM
[1] = test system: EGFR (human), P00533 [T790M]
[2] = test system: EGFR (human), P00533 [A750P; 747-749 del]
EPHA2 (human) = EPHA2 (human) (UniProt P29317)
EPHB4 (human) = EPHB4 (human) (UniProt P54760)
HIPK4 (human) = HIPK4 (human) (UniProt Q8NE63)
[3] = test system: FLT3 (human), P36888 [K663Q]
CLK4 (human) = CLK4 (human) (UniProt Q9HAZ1)
[4] = test system: EIF2AK4 KD2 (human), Q9P2K8 [S808G]
MAPK12 (human) = MAPK12 (human) (UniProt P53778)
VRK2 (human) = VRK2 (human) (UniProt Q86Y07)
[5] = test system: EGFR (human), P00533 [L861Q]
MST4 (human) = MST4 (human) (UniProt Q9P289)
MYLK4 (human) = MYLK4 (human) (UniProt Q86YV6)
INSR (human) = INSR (human) (UniProt P06213)
MAPK14 (human) = MAPK14 (human) (UniProt Q16539)
PHKG2 (human) = PHKG2 (human) (UniProt P15735)
MARK2 (human) = MARK2 (human) (UniProt Q7KZI7)
PAK2 (human) = PAK2 (human) (UniProt Q13177)
PRKCH (human) = PRKCH (human) (UniProt P24723)
DAPK2 (human) = DAPK2 (human) (UniProt Q9UIK4)
EPHA7 (human) = EPHA7 (human) (UniProt Q15375)
[6] = test system: EGFR (human), P00533 [P753S; 747-752 del]
[7] = test system: EGFR (human), P00533 [T790M/L858R]
SRPK1 (human) = SRPK1 (human) (UniProt Q96SB4)
TNK1 (human) = TNK1 (human) (UniProt Q13470)
AXL (human) = AXL (human) (UniProt P30530)
MTOR (human) = MTOR (human) (UniProt P42345)
CDK16 (human) = CDK16 (human) (UniProt Q00536)
MYO3A (human) = MYO3A (human) (UniProt Q8NEV4)
CDK19 (human) = CDK19 (human) (UniProt Q9BWU1)
MET (human) = MET (human) (UniProt P08581)
CSNK1A1L (human) = CSNK1A1L (human) (UniProt Q8N752)
RPS6KA5 KD1 (human) = RPS6KA5 KD1 (human) (UniProt O75582)
CDK4 CCND1 (human) = CDK4 CCND1 (human) (UniProt P11802+P24385)
STK35 (human) = STK35 (human) (UniProt Q8TDR2)
TNNI3K (human) = TNNI3K (human) (UniProt Q59H18)
SRPK2 (human) = SRPK2 (human) (UniProt P78362)
TAOK3 (human) = TAOK3 (human) (UniProt Q9H2K8)
FGFR4 (human) = FGFR4 (human) (UniProt P22455)
MAPKAPK2 (human) = MAPKAPK2 (human) (UniProt P49137)
MST1R (human) = MST1R (human) (UniProt Q04912)
RIOK2 (human) = RIOK2 (human) (UniProt Q9BVS4)

Sequence of TAOK3 (human) (Q9H2K8 whole entry, looked up): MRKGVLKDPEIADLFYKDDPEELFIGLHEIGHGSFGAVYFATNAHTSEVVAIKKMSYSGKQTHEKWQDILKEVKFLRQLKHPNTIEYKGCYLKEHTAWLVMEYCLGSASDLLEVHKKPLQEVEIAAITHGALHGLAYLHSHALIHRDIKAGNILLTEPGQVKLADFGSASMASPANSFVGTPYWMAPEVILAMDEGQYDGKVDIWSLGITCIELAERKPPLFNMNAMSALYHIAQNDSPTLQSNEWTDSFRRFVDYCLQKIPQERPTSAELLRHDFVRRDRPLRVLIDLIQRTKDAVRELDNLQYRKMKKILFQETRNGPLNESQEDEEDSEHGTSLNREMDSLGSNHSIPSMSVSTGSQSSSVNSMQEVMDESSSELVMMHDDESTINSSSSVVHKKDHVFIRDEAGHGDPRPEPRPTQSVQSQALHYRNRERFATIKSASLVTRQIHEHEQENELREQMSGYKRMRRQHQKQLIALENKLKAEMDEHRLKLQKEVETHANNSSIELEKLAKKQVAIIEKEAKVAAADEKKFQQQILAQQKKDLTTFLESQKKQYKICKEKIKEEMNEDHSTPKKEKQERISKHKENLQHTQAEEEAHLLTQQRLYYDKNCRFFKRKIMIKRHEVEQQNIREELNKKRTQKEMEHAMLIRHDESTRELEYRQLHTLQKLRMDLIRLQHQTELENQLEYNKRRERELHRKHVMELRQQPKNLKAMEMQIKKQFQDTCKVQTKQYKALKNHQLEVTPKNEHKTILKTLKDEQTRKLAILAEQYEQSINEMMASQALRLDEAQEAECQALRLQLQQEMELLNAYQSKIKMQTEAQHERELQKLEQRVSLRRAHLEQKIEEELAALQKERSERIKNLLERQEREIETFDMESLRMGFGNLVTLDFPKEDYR
Sequence of MAPKAPK2 (human) (P49137 whole entry, looked up): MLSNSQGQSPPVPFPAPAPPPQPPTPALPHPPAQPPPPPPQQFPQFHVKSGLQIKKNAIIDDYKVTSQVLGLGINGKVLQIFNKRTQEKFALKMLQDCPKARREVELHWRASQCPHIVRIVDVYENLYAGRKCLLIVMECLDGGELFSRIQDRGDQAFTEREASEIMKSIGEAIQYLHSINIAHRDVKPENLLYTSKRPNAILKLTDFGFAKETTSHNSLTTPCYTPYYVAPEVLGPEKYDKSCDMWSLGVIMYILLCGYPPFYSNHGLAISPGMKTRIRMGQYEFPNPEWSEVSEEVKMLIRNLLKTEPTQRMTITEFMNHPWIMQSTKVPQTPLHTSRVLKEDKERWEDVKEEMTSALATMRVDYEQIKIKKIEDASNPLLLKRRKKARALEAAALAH
Sequence of MYO3A (human) (Q8NEV4 whole entry, looked up): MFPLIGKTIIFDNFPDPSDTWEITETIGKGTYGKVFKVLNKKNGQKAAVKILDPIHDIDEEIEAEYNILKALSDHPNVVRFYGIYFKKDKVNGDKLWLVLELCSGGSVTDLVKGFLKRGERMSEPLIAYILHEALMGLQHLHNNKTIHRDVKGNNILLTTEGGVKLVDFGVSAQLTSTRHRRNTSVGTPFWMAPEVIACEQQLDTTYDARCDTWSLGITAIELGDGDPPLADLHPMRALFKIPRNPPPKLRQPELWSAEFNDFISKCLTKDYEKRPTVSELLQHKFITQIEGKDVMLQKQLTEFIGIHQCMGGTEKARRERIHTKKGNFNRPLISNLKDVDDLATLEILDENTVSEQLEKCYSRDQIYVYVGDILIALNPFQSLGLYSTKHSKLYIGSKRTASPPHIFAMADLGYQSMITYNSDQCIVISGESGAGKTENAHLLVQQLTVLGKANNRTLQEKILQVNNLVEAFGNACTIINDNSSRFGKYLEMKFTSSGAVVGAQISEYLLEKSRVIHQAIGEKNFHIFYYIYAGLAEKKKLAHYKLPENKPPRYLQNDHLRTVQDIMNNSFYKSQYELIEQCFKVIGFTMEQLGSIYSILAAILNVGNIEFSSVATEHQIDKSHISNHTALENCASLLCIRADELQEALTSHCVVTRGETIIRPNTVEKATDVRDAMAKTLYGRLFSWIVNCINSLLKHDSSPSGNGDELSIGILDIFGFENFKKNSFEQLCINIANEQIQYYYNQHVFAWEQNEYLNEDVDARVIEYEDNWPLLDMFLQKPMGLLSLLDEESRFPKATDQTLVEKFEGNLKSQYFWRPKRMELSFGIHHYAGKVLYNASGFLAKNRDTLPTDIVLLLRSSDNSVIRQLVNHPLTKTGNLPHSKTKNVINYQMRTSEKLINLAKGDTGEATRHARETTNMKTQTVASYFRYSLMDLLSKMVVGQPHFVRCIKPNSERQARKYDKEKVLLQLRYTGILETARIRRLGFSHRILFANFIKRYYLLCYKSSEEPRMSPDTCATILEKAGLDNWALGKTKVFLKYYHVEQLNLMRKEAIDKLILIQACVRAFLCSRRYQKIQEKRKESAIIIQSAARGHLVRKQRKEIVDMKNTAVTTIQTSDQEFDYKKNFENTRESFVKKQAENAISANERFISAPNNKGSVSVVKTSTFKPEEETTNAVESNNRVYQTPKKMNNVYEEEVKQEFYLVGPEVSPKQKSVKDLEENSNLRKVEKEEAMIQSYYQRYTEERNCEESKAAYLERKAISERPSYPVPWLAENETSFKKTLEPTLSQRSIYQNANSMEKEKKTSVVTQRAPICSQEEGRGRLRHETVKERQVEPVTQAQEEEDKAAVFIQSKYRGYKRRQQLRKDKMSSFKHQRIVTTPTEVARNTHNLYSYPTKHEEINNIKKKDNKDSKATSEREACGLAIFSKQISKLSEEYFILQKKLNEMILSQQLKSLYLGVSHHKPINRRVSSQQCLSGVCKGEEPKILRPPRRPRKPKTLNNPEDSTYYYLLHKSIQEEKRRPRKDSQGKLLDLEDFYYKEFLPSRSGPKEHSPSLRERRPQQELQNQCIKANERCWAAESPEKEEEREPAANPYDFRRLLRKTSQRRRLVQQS
Sequence of AXL (human) (P30530 whole entry, looked up): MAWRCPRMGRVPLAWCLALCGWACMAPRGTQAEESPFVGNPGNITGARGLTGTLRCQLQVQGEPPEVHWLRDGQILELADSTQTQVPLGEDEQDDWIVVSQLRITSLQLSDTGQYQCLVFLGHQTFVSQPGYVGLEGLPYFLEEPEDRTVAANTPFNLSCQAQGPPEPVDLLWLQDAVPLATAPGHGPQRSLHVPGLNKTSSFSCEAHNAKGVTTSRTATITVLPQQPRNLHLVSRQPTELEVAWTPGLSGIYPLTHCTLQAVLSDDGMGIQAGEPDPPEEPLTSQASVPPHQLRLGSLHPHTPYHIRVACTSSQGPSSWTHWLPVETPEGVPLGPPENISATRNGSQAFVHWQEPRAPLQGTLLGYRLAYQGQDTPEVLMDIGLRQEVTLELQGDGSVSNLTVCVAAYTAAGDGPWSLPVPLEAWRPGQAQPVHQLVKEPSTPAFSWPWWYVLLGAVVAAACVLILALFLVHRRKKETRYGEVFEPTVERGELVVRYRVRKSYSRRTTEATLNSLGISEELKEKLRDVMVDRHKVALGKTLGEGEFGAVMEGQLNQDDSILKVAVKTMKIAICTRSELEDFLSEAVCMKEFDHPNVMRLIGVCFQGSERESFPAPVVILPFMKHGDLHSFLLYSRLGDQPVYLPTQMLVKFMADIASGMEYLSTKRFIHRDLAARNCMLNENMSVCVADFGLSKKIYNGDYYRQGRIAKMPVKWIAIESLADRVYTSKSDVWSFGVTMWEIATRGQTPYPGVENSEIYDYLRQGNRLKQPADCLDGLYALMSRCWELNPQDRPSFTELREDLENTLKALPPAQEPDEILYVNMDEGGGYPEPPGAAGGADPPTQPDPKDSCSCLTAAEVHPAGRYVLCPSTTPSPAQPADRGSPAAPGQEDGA
Sequence of MAPK14 (human) (Q16539 whole entry, looked up): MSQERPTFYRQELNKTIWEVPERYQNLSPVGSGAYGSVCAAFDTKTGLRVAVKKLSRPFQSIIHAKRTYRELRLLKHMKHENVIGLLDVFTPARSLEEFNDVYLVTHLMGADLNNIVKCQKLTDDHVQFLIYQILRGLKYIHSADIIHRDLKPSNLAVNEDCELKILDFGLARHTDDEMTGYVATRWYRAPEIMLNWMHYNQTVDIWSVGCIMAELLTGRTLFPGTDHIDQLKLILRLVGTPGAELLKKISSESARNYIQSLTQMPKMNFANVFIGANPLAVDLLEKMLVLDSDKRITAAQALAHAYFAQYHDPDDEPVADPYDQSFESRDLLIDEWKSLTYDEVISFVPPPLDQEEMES
Sequence of MST4 (human) (Q9P289 whole entry, looked up): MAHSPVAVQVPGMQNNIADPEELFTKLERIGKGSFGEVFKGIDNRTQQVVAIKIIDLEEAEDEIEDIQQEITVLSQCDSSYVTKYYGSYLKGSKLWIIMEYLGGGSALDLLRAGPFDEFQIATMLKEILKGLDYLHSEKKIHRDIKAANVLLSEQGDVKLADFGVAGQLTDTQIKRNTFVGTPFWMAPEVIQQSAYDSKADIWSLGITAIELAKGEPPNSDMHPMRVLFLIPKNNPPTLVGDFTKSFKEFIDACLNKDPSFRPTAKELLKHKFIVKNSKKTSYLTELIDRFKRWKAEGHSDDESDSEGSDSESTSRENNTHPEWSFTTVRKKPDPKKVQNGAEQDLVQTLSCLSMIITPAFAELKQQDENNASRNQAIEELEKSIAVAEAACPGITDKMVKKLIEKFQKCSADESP
Sequence of MYLK4 (human) (Q86YV6 whole entry, looked up): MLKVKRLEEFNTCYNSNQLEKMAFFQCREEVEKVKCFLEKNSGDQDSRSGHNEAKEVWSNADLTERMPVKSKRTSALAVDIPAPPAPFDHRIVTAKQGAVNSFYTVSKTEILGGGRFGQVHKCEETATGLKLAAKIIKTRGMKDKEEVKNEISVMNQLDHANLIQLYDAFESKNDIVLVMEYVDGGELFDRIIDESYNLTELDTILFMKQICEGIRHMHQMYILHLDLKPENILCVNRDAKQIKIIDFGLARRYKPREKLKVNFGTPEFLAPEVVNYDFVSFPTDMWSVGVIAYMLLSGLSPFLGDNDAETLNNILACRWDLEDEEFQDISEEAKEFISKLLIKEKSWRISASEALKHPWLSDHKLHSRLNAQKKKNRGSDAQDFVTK

CN(C)C/C=C/C(=O)Nc1cccc(C(=O)Nc2ccc(Nc3nccc(-c4c(-c5ccccc5)nn5ccccc45)n3)cc2)c1
kinase still bound, per cent of control [1]: 11% | kinase still bound, per cent of control [2]: 1.6% | kinase still bound, per cent of control (EPHA2 (human)): 76% | kinase still bound, per cent of control (EPHB4 (human)): 43% | kinase still bound, per cent of control (HIPK4 (human)): 70% | kinase still bound, per cent of control [3]: 12% | kinase still bound, per cent of control (CLK4 (human)): 100% | kinase still bound, per cent of control [4]: 76% | kinase still bound, per cent of control (MAPK12 (human)): 94% | kinase still bound, per cent of control (VRK2 (human)): 85% | kinase still bound, per cent of control [5]: 0.75% | kinase still bound, per cent of control (MST4 (human)): 85% | kinase still bound, per cent of control (MYLK4 (human)): 100% | kinase still bound, per cent of control (INSR (human)): 100% | kinase still bound, per cent of control (MAPK14 (human)): 2.1% | kinase still bound, per cent of control (PHKG2 (human)): 100% | kinase still bound, per cent of control (MARK2 (human)): 98% | kinase still bound, per cent of control (PAK2 (human)): 88% | kinase still bound, per cent of control (PRKCH (human)): 100% | kinase still bound, per cent of control (DAPK2 (human)): 97% | kinase still bound, per cent of control (EPHA7 (human)): 100% | kinase still bound, per cent of control [6]: 7% | kinase still bound, per cent of control [7]: 36% | kinase still bound, per cent of control (SRPK1 (human)): 90% | kinase still bound, per cent of control (TNK1 (human)): 100% | kinase still bound, per cent of control (AXL (human)): 58% | kinase still bound, per cent of control (MTOR (human)): 100% | kinase still bound, per cent of control (CDK16 (human)): 100% | kinase still bound, per cent of control (MYO3A (human)): 100% | kinase still bound, per cent of control (CDK19 (human)): 100% | kinase still bound, per cent of control (MET (human)): 55% | kinase still bound, per cent of control (CSNK1A1L (human)): 5.5% | kinase still bound, per cent of control (RPS6KA5 KD1 (human)): 100% | kinase still bound, per cent of control (CDK4 CCND1 (human)): 79% | kinase still bound, per cent of control (STK35 (human)): 94% | kinase still bound, per cent of control (TNNI3K (human)): 100% | kinase still bound, per cent of control (SRPK2 (human)): 85% | kinase still bound, per cent of control (TAOK3 (human)): 42% | kinase still bound, per cent of control (FGFR4 (human)): 100% | kinase still bound, per cent of control (MAPKAPK2 (human)): 84% | kinase still bound, per cent of control (MST1R (human)): 100% | kinase still bound, per cent of control (RIOK2 (human)): 27%

CN(C)C/C=C/C(=O)Nc1cccc(C(=O)Nc2ccc(Nc3nccc(/C(C#N)=C4\Nc5ccccc5S4)n3)cc2)c1
kinase still bound, per cent of control [1]: 80% | kinase still bound, per cent of control [2]: 94% | kinase still bound, per cent of control (EPHA2 (human)): 100% | kinase still bound, per cent of control (EPHB4 (human)): 100% | kinase still bound, per cent of control (HIPK4 (human)): 6% | kinase still bound, per cent of control [3]: 37% | kinase still bound, per cent of control (CLK4 (human)): 64% | kinase still bound, per cent of control [4]: 55% | kinase still bound, per cent of control (MAPK12 (human)): 100% | kinase still bound, per cent of control (VRK2 (human)): 100% | kinase still bound, per cent of control [5]: 81% | kinase still bound, per cent of control (MST4 (human)): 100% | kinase still bound, per cent of control (MYLK4 (human)): 20% | kinase still bound, per cent of control (INSR (human)): 100% | kinase still bound, per cent of control (MAPK14 (human)): 95% | kinase still bound, per cent of control (PHKG2 (human)): 100% | kinase still bound, per cent of control (MARK2 (human)): 100% | kinase still bound, per cent of control (PAK2 (human)): 100% | kinase still bound, per cent of control (PRKCH (human)): 100% | kinase still bound, per cent of control (DAPK2 (human)): 100% | kinase still bound, per cent of control (EPHA7 (human)): 100% | kinase still bound, per cent of control [6]: 100% | kinase still bound, per cent of control [7]: 100% | kinase still bound, per cent of control (SRPK1 (human)): 91% | kinase still bound, per cent of control (TNK1 (human)): 15% | kinase still bound, per cent of control (AXL (human)): 100% | kinase still bound, per cent of control (MTOR (human)): 100% | kinase still bound, per cent of control (CDK16 (human)): 100% | kinase still bound, per cent of control (MYO3A (human)): 100% | kinase still bound, per cent of control (CDK19 (human)): 93% | kinase still bound, per cent of control (MET (human)): 92% | kinase still bound, per cent of control (CSNK1A1L (human)): 100% | kinase still bound, per cent of control (RPS6KA5 KD1 (human)): 100% | kinase still bound, per cent of control (CDK4 CCND1 (human)): 100% | kinase still bound, per cent of control (STK35 (human)): 97% | kinase still bound, per cent of control (TNNI3K (human)): 100% | kinase still bound, per cent of control (SRPK2 (human)): 100% | kinase still bound, per cent of control (TAOK3 (human)): 100% | kinase still bound, per cent of control (FGFR4 (human)): 100% | kinase still bound, per cent of control (MAPKAPK2 (human)): 92% | kinase still bound, per cent of control (MST1R (human)): 100% | kinase still bound, per cent of control (RIOK2 (human)): 18%
